Data set [1] in a line: Cytotoxicity in MDBK cells (no BVD virus added). The conditions noted are these: bovine, MDBK cells (Madin-Darby bovine kidney), no virus added.
Data set [2] deals with Bovine viral diarrhea (BVD) virus. As to the kind of experiment: Anti-BVDV CPE inhibition assay in MDBK cells. The conditions noted are these: for EC50: Bovine viral diarrhea virus isolates and strains, MDBK, in Bos taurus, 96 h; for SI (selectivity index, ratio of CC50 and EC50): CC50/EC50, MDBK cells, BVD virus.

Some results are limits rather than exact numbers.

The values below come from patent US12577242B2, “Pyrrolopyridine and imidazopyridine antiviral compounds” (KATHOLIEKE UNIVERSITEIT LEUVEN, priority 2020, dated 2026).

In general, CC50 refers to the concentration that lowers cell viability or growth by half. A high value points to better tolerance by the cells. By EC50 is commonly meant the concentration at which the effect is half-maximal. Lower therefore signals a more potent agent.

As for `COc1ccc2oc(Cn3ccc4nc(-c5ccccc5F)nc-4c3)nc2c1` [CPD-33, 2-((2-(2-fluorophenyl)-5H-imidazo[4,5-c]pyridin-5-yl)methyl)-5-methoxybenzo[d]oxazole], the CC50 at 4 days in data set [1] was > 50000 nM. In addition, in data set [2], the EC50 was determined as 447 nM; the “SI (selectivity index, ratio of CC50 and EC50)” value is on record as >112.
Turning to `Fc1ccc(-c2cc(Cn3ccc4nc(-c5ccccc5F)nc-4c3)on2)c(F)c1` [CPD-34, 3-(2,4-difluorophenyl)-5-((2-(2-fluorophenyl)-5H-imidazo[4,5-c]pyridin-5-yl)methyl)isoxazole], in data set [1], the CC50 at 4 days is > 50000 nM. In data set [2], a half-maximal effect (EC50) was put at 92 ± 49 nM; the “SI (selectivity index, ratio of CC50 and EC50)” value was >543.
Turning to `Fc1ccc(F)c(-c2cc(Cn3ccc4nc(-c5ccccc5F)nc-4c3)on2)c1` [CPD-35, 3-(2,5-difluorophenyl)-5-((2-(2-fluorophenyl)-5H-imidazo[4,5-c]pyridin-5-yl)methyl)isoxazole], in data set [1], the CC50 at 4 days is > 50000 nM. In data set [2], the EC50 turned out to be 75 ± 24 nM; the “SI (selectivity index, ratio of CC50 and EC50)” value is given as >667.
The matching figures for `Cc1ccc2nc(Cn3ccc4nc(-c5ccccc5F)nc-4c3)[nH]c2c1` [CPD-36, 2-(2-fluorophenyl)-5-((6-methyl-1H-benzo[d]imidazol-2-yl)methyl)-5H-imidazo[4,5-c]pyridine]: > 50000 nM, 403 ± 129 nM and >124.
For `Fc1ccc2nc(Cn3ccc4nc(-c5ccccc5F)nc-4c3)[nH]c2c1` [CPD-37, 5-((6-fluoro-1H-benzo[d]imidazol-2-yl)methyl)-2-(2-fluorophenyl)-5H-imidazo[4,5-c]pyridine], in data set [1], the CC50 at 4 days is > 50000 nM. Besides, in data set [2], the concentration for a half-maximal effect (EC50) worked out at 370 ± 74 nM; the “SI (selectivity index, ratio of CC50 and EC50)” value is given as >135.
Regarding `Fc1ccccc1-c1nc2ccn(Cn3nnc4ccccc43)cc-2n1` [CPD-38, 1-((2-(2-fluorophenyl)-5H-imidazo[4,5-c]pyridin-5-yl)methyl)-1H-benzo[d][1,2,3]triazole], the cytotoxic concentration (CC50) at 4 days in data set [1] is > 50000 nM. For the same compound, in data set [2], the half-maximal effective concentration (EC50) was found to be 336 ± 103 nM; the “SI (selectivity index, ratio of CC50 and EC50)” value is recorded as >149.
As for `Fc1cccc(-c2nc3ccn(Cc4cc(-c5cc(F)ccc5F)no4)cc-3n2)c1` [CPD-39, 3-(2,5-difluorophenyl)-5-((2-(3-fluorophenyl)-5H-imidazo[4,5-c]pyridin-5-yl)methyl)isoxazole], the CC50 at 4 days in data set [1] was > 50000 nM. In data set [2], the EC50 worked out at 84 ± 8 nM; the “SI (selectivity index, ratio of CC50 and EC50)” value was >595.
`Cc1ccc2nc(Cn3ccc4nc(-c5cc(OCCO)ccc5F)nc-4c3)sc2c1` [CPD-41, 2-(4-fluoro-3-(5-((6-methylbenzo[d]thiazol-2-yl)methyl)-5H-imidazo[4,5-c]pyridin-2-yl)phenoxy)ethan-1-ol]: the CC50 at 4 days in data set [1] is > 50000 nM. In data set [2], the response was half-maximal at 223 ± 143 nM (EC50); the “SI (selectivity index, ratio of CC50 and EC50)” value was >224.
Consider `OCCOc1ccc(F)c(-c2nc3ccn(Cc4cc(-c5cc(F)ccc5F)no4)cc-3n2)c1` [CPD-42, 2-(3-(5-((3-(2,5-difluorophenyl)isoxazol-5-yl)methyl)-5H-imidazo[4,5-c]pyridin-2-yl)-4-fluorophenoxy)ethan-1-ol], for which the CC50 at 4 days in data set [1] is > 50000 nM. For the same compound, in data set [2], the concentration giving a half-maximal response (EC50) worked out at 460 ± 48 nM; the “SI (selectivity index, ratio of CC50 and EC50)” value was >109.
In the same order, the values of `N#Cc1ccc(-c2nc3ccn(Cc4cc(-c5cc(F)ccc5F)no4)cc-3n2)cc1` [CPD-43, 4-(5-((3-(2,5-difluorophenyl)isoxazol-5-yl)methyl)-5H-imidazo[4,5-c]pyridin-2-yl)benzonitrile] are > 50000 nM, 81 ± 8 nM and >617.
For the compound `CN(C)c1cccc(-c2nc3ccn(Cc4cc(-c5cc(F)ccc5F)no4)cc-3n2)c1` [CPD-44, 3-(5-((3-(2,5-difluorophenyl)isoxazol-5-yl)methyl)-5H-imidazo[4,5-c]pyridin-2-yl)-N,N-dimethylaniline], the CC50 at 4 days in data set [1] was > 50000 nM. Besides, in data set [2], the EC50 was 88 ± 17 nM; the “SI (selectivity index, ratio of CC50 and EC50)” value was >568.
The matching figures for `Cc1ccc2nc(Cn3ccc4nc(-c5ccccc5CO)nc-4c3)sc2c1` [CPD-45, (2-(5-((6-methylbenzo[d]thiazol-2-yl)methyl)-5H-imidazo[4,5-c]pyridin-2-yl)phenyl)methanol]: > 50000 nM, 297 ± 107 nM and >168.
In the case of `OCc1ccccc1-c1nc2ccn(Cc3cc(-c4cc(F)ccc4F)no3)cc-2n1` [CPD-46, (2-(5-((3-(2,5-difluorophenyl)isoxazol-5-yl)methyl)-5H-imidazo[4,5-c]pyridin-2-yl)phenyl)methanol], the CC50 at 4 days in data set [1] was > 50000 nM. In data set [2], a half-maximal response (EC50) required 465 ± 26 nM; the “SI (selectivity index, ratio of CC50 and EC50)” value is recorded as >108.
`Cc1ccc(-c2nc3ccn(Cc4cc(-c5cc(F)ccc5F)no4)cc-3n2)s1` [CPD-47, 3-(2,5-difluorophenyl)-5-((2-(5-methylthiophen-2-yl)-5H-imidazo[4,5-c]pyridin-5-yl)methyl)isoxazole] came in with a CC50 at 4 days in data set [1] of 24000 nM. Moreover, in data set [2], the EC50 came out at 341 ± 25 nM; the “SI (selectivity index, ratio of CC50 and EC50)” value was determined as 70.
`Cc1cc(-c2nc3ccn(Cc4cc(-c5cc(F)ccc5F)no4)cc-3n2)cs1` [CPD-48, 3-(2,5-difluorophenyl)-5-((2-(5-methylthiophen-3-yl)-5H-imidazo[4,5-c]pyridin-5-yl)methyl)isoxazole] showed a CC50 at 4 days in data set [1] of 27000 nM. Besides, in data set [2], a half-maximal response (EC50) required 395 ± 22 nM; the “SI (selectivity index, ratio of CC50 and EC50)” value is reported as 68.
With `Cc1scc(-c2nc3ccn(Cc4cc(-c5cc(F)ccc5F)no4)cc-3n2)c1C` [CPD-49, 3-(2,5-difluorophenyl)-5-((2-(4,5-dimethylthiophen-3-yl)-5H-imidazo[4,5-c]pyridin-5-yl)methyl)isoxazole], the CC50 at 4 days in data set [1] turned out to be 31000 nM. In data set [2], a half-maximal effect (EC50) was put at 409 nM; the “SI (selectivity index, ratio of CC50 and EC50)” value was determined as 76.
Compound `Fc1ccc(OC(F)(F)F)cc1-c1cc2ccn(Cn3nnc4ccccc43)cc-2n1` [Compound II, 1-({2-[2-fluoro-5-(trifluoromethoxy)phenyl]-6H-pyrrolo[2,3-c]pyridin-6-yl}methyl)-1H-benzotriazole] displayed a half-maximal cytotoxic concentration (CC50) at 4 days in data set [1] of 20000 nM. Moreover, in data set [2], the EC50 amounted to 23 nM; the “SI (selectivity index, ratio of CC50 and EC50)” value is recorded as 870.
As to `OCCOc1ccc(F)c(-c2cc3ccn(Cn4nnc5ccccc54)cc-3n2)c1` [Compound III, 2-(3-{6-[(1H-benzotriazol-1-yl)methyl]-6H-pyrrolo[2,3-c]pyridin-2-yl}-4-fluorophenoxy)ethan-1-ol], the 50% cytotoxic concentration (CC50) at 4 days in data set [1] is 22000 nM. Besides, in data set [2], a half-maximal effect (EC50) was put at 19 ± 7 nM; the “SI (selectivity index, ratio of CC50 and EC50)” value is 1158.
The matching figures for `COc1ccccc1-c1cc2ccn(Cn3nnc4ccccc43)cc-2n1` [Compound IV, 1-{[2-(2-methoxyphenyl)-6H-pyrrolo[2,3-c]pyridin-6-yl]methyl}-1H-benzotriazole]: 22000 nM, 8 ± 5 nM and 2750.
On to `Cc1ccc2oc(Cn3ccc4cc(-c5ccccc5F)nc-4c3)nc2c1` [Compound IX, 2-{[2-(2-fluorophenyl)-6H-pyrrolo[2,3-c]pyridin-6-yl]methyl}-5-methyl-1,3-benzoxazole], for which the CC50 at 4 days in data set [1] was 5000 nM. In data set [2], a half-maximal effect (EC50) was put at 1.2 ± 1.5 nM; the “SI (selectivity index, ratio of CC50 and EC50)” value was 4167.
For the compound `N#Cc1ccc(-c2cc3ccn(Cn4nnc5ccccc54)cc-3n2)cc1` [Compound VI, 4-{6-[(1H-benzotriazol-1-yl)methyl]-6H-pyrrolo[2,3-c]pyridin-2-yl}benzonitrile], in data set [1], the CC50 at 4 days was > 50000 nM. For the same compound, in data set [2], the EC50 stood at 16 nM; the “SI (selectivity index, ratio of CC50 and EC50)” value is >3125.
`COc1ncccc1-c1cc2ccn(Cn3nnc4ccccc43)cc-2n1` [Compound VII, 1-{[2-(2-methoxypyridin-3-yl)-6H-pyrrolo[2,3-c]pyridin-6-yl]methyl}-1H-benzotriazole]: the 50% cytotoxic concentration (CC50) at 4 days in data set [1] was determined as 22000 nM. In data set [2], it took 16 ± 1 nM to reach a half-maximal effect (EC50); the “SI (selectivity index, ratio of CC50 and EC50)” value turned out to be 1375.
Turning to `Cc1c(-c2cc3ccn(Cn4nnc5ccccc54)cc-3n2)cnn1C` [Compound VIII, 1-[(2-(1,5-dimethyl-1H-pyrazol-4-yl)-6H-pyrrolo[2,3-c]pyridin-6-yl)methyl]-1H-benzotriazole], the CC50 at 4 days in data set [1] was > 50000 nM. For the same compound, in data set [2], the EC50 was 335 ± 80 nM; the “SI (selectivity index, ratio of CC50 and EC50)” value was >149.
In the case of `COc1ncccc1-c1cc2ccn(Cc3nc4cc(C)ccc4o3)cc-2n1` [Compound X, 2-((2-(2-methoxypyridin-3-yl)-6H-pyrrolo[2,3-c]pyridin-6-yl)methyl)-5-methyl-1,3-benzoxazole], it took 4000 nM to reach half-maximal cytotoxicity in data set [1] (CC50 at 4 days). In addition, in data set [2], the EC50 worked out at 7 ± 4 nM; the “SI (selectivity index, ratio of CC50 and EC50)” value is reported as 571.
In data set [1], `Cc1ccc2nc(Cn3ccc4cc(-c5ccccc5F)nc-4c3)sc2c1` [Compound XI, 2-{[2-(2-fluorophenyl)-6H-pyrrolo[2,3-c]pyridin-6-yl]methyl}-6-methyl-1,3-benzothiazole] had a 50% cytotoxic concentration (CC50) at 4 days of 4000 nM. In data set [2], the response was half-maximal at 8 nM (EC50); the “SI (selectivity index, ratio of CC50 and EC50)” value was found to be 500.
In data set [1], `Cc1ccc2nc(Cn3ccc4cc(-c5cc(OCCO)ccc5F)nc-4c3)sc2c1` [Compound XII, 2-(4-fluoro-3-(6-((6-methyl-1,3-benzothiazol-2-yl)methyl)-6H-pyrrolo[2,3-c]pyridin-2-yl)phenoxy)ethan-1-ol] showed a cytotoxic concentration (CC50) at 4 days of 5000 nM. In data set [2], the EC50 worked out at 20 ± 7 nM; the “SI (selectivity index, ratio of CC50 and EC50)” value came to 250.
As for `Cc1ccc2nc(Cn3ccc4cc(-c5ccccc5CO)nc-4c3)sc2c1` [Compound XIII, (2-{6-[(6-methyl-1,3-benzothiazol-2-yl)methyl]-6H-pyrrolo[2,3-c]pyridin-2-yl}phenyl)methanol], in data set [1], the CC50 at 4 days was 18000 nM. Also, in data set [2], the response was half-maximal at 9 ± 8 nM (EC50); the “SI (selectivity index, ratio of CC50 and EC50)” value turned out to be 2000.
